The values below come from patent US20040013696A1, “Use of ellagic acid as an anti-pollution cosmetic agent” (priority 2000, published 2004).

Data set [1] deals with human keratinocytes. The data set can be described thus: Covalent binding of 14C-benzo[a]pyrene to cell proteins (alkylation of nucleophiles). In kind it is cell-based. The source says:
Polycyclic aromatic hydrocarbons (PAHs), adsorbed onto the surface of particles and dust conveyed by the urban atmosphere, can penetrate into skin tissue and be biotransformed therein. Their metabolism in the liver, which is well-described in the literature, leads to the formation of monohydroxylated metabolites (detoxification pathway), epoxides and diol epoxides (toxifying pathway). It follows the same profile in the skin. […] After consequent or repeated exposures to the pollutant, its potential toxicity can lead to a contact hypersensitivity in the case of the alkylation of proteins. […] The cells are inoculated on D-3 into 6-well dishes at a rate of 53 000 cells/cm^2. The incubations are performed at 37° C. in humid atmosphere enriched with 5% CO2. […] The covalent binding to cell proteins is measured according to the protocol of Hoellinger et al., adapted to a filtration method in 96-well microplates (H. Hoellinger, M. Sonnier, J. Gray, T. A. Connors, J. Pichon and N. H. Nam. In vitro covalent binding of […], bioresmethrin and their common alcohol to hepatic proteins. Toxicol. Appl. Pharmacol., 1985, 77, 11-18). […] The aim of this series of washes is to remove from the proteins any radioactivity not covalently bound. […] Samples are then taken to assay the proteins and count the radioactivity of the solution. The results are expressed as nmol of B[a]P bound per mg of proteins.

For data set [2], the system named is human keratinocytes.
Method: The study was performed on a monolayer culture of human keratinocytes obtained from plastic surgeries. The cells are inoculated on D-3 into 96-well dishes at a rate of 25 000 cells/cm^2 in 100 μl of culture medium. The incubations are performed at 37° C. in a humid atmosphere enriched with 5% CO2.
Initially, the cells are treated for 24 hours with increasing concentrations (0, 10, 25, 50, 75, 100, 150 and 200 μM) of cadmium chloride (CdCl2), so as to determine its cytotoxicity. […]
At the end of the treatment, the cell viability is determined by means of the neutral red incorporation test (POS 55/006) and reading at 550 nm (ref: Borenfreund, E and Puerner, J. A. (1984) A simple quantitative procedure using monolayer cultures for cytotoxicity assays. Tissue Culture Methods; 9: 7-9).
The cells are rinsed with PBS buffer in order to remove the treatment solutions, and are then incubated for three hours at 37° C. in a neutral red solution (100 μl) prepared to a concentration of 0.5 mg/ml in the culture medium. […] The amount extracted is determined by reading the optical density on a spectrophotometer at 550 nm.
The concentration of CdCl2 that induces a 50% drop in the cell viability (IC-50) is then calculated.
The subject of data set [3] is human keratinocytes. The data set can be described thus: Protection against the effects of ozone: ozone-induced lipid hydroperoxides (DCFH-DA fluorescence). In kind it is cell-based. As to conditions: ellagic acid 200 μM; for % fluorescence observed ± SEM, relative to the unprotected controls: ozone 10 ppm. The protocol:
Ozone has the capacity to oxidize cell constituents, especially generating carbonylated proteins and lipid hydroperoxides. Quantification of the lipid hydroperoxides is one means of measuring the oxidative stress induced by an exposure of skin tissue to this pollutant. A decrease in their content indicates a protective effect of ellagic acid. […] The incubations are performed at 37° C., 5% CO2 in humid atmosphere. […] Hydroperoxides constitute an intracellular stress marker. They are detected and quantified by means of a fluorescence technique (Lebel C. P., Ischiropoulos H. and Bondy S. C. […] Chem. Res. Toxicol.: 5: 227-231). […] The cells, pretreated for 24 hours with ellagic acid, are then washed with phosphate-buffered saline (PBS) and placed in contact for 30 minutes with a solution of DCFH-DA (500 μl/well), prepared in the culture medium to a concentration of 320 μM. […] They are then exposed to ozone (10 ppm), in a humid atmosphere, in an incubator set at 37° C. The formation of fluorescent DCF (excitation screen at 485 nm and emission screen at 530 nm) resulting from the production of hydroperoxides is measured after different times of exposure to ozone: 0, 5, 10 and 20 minutes. […] For each time, the fluorescence values of the unprotected controls are set at 100%. The resulting values in the presence of ellagic acid are then expressed relative to this control value. […] This protection is at a maximum from 5 minutes of exposure onward (71.8% drop in induced stress). It is still significant after 20 minutes of exposure (47.7% drop in induced stress).

Take `c1ccc2c(c1)cc1ccc3cccc4ccc2c1c34` [B (a) P, benzo(a)pyrene, reference compound]: in data set [1] (benzo(a)pyrene alone at 20 μM), the “covalent binding to keratinocyte proteins” value is 0.28 nmol of B(a)P per mg of protein.
In the case of `[Cl][Cd][Cl]` [cadmium chloride, reference compound], the IC50 in data set [2] (read-out: IC-50 of cadmium chloride, Mean ± SEM, without ellagic acid, 24 hours, n=4) was 39 µM.
Consider `O=c1oc2c(O)c(O)cc3c(=O)oc4c(O)c(O)cc1c4c23` [ellagic acid, 2,3,7,8-tetrahydroxy-(1)benzopyrano(5,4,3-cde)(1)benzopyran-5,10-dione], for which the “reduction in the reactivity of B(a)P by a factor” value in data set [1] (in the presence of ellagic acid 100 μM) is reported as 3.1. Also, the “maximum dose of ellagic acid noncytotoxic to the cells” value in data set [2] (human, 24 h) was determined as 200 µM. The figures for the “drop in induced stress” value in data set [3] (5 minutes of exposure to ozone) and in data set [3] (20 minutes of exposure to ozone) were 71.8% and 47.7%, respectively. The “% fluorescence observed ± SEM, relative to the unprotected controls” value in data set [3] (5 min. of contact) amounted to 28.2 ± 3.3%; in data set [3] (10 min. of contact) it was 36.3 ± 3.4%; in data set [3] (20 min. of contact), 52.3 ± 4.4%.
